Results from the NIST ThermoML archive (doi:10.1021/je301095j).

Assay: xn = mol fraction of the nth substance listed
Settings: 101 kPa, Liquid; for kinematic viscosity: Capillary tube (Ostwald / Ubbelohde) method; for mass density: Vibrating tube method

COCCOC [1,2-dimethoxyethane] + CCO
Settings | kinematic viscosity [m2/s] | mass density [kg/m3]
283.15 K, x1 = 0.05379 | 1.552e-06 | 805.91
283.15 K, x1 = 0.09719 | 1.381e-06 | 811.83
283.15 K, x1 = 0.2113 | 1.08e-06 | 825.56
283.15 K, x1 = 0.2968 | 9.35e-07 | 834.32
283.15 K, x1 = 0.4056 | 8.09e-07 | 843.94
283.15 K, x1 = 0.4865 | 7.45e-07 | 850.18
283.15 K, x1 = 0.5971 | 6.82e-07 | 857.71
283.15 K, x1 = 0.6948 | 6.38e-07 | 863.49
283.15 K, x1 = 0.8257 | 5.98e-07 | 870.24
283.15 K, x1 = 0.8749 | 5.83e-07 | 872.52
283.15 K, x1 = 0.9456 | 5.71e-07 | 875.57
293.15 K, x1 = 0.05746 | 1.304e-06 | 797.66
293.15 K, x1 = 0.09986 | 1.17e-06 | 803.22
293.15 K, x1 = 0.1453 | 1.07e-06 | 808.77
293.15 K, x1 = 0.2138 | 9.37e-07 | 816.42
293.15 K, x1 = 0.2947 | 8.24e-07 | 824.42
293.15 K, x1 = 0.399 | 7.25e-07 | 833.43
293.15 K, x1 = 0.4877 | 6.64e-07 | 840.1
293.15 K, x1 = 0.5965 | 6.09e-07 | 847.24
293.15 K, x1 = 0.6885 | 5.75e-07 | 852.56
293.15 K, x1 = 0.8249 | 5.39e-07 | 859.38
293.15 K, x1 = 0.8772 | 5.26e-07 | 861.72
293.15 K, x1 = 0.9542 | 5.13e-07 | 864.93
303.15 K, x1 = 0.04309 | 1.14e-06 | 786.92
303.15 K, x1 = 0.1038 | 9.89e-07 | 794.71
303.15 K, x1 = 0.2082 | 8.13e-07 | 806.41
303.15 K, x1 = 0.2955 | 7.17e-07 | 814.8
303.15 K, x1 = 0.3926 | 6.39e-07 | 822.94
303.15 K, x1 = 0.497 | 5.82e-07 | 830.54
303.15 K, x1 = 0.5918 | 5.43e-07 | 836.55
303.15 K, x1 = 0.6991 | 5.1e-07 | 842.5
303.15 K, x1 = 0.8103 | 4.86e-07 | 847.89
303.15 K, x1 = 0.8876 | 4.73e-07 | 851.26
303.15 K, x1 = 0.9199 | 4.68e-07 | 852.57
313.15 K, x1 = 0.04639 | 9.59e-07 | 778.57
313.15 K, x1 = 0.1049 | 8.49e-07 | 785.84
313.15 K, x1 = 0.211 | 7.05e-07 | 797.27
313.15 K, x1 = 0.2977 | 6.27e-07 | 805.28
313.15 K, x1 = 0.3787 | 5.75e-07 | 811.92
313.15 K, x1 = 0.4959 | 5.21e-07 | 820.25
313.15 K, x1 = 0.6512 | 4.7e-07 | 829.41
313.15 K, x1 = 0.6979 | 4.62e-07 | 831.83
313.15 K, x1 = 0.8168 | 4.39e-07 | 837.35
313.15 K, x1 = 0.8803 | 4.32e-07 | 840.03
313.15 K, x1 = 0.9384 | 4.23e-07 | 842.37
